Source: PMC9538944, “In vitro biotransformation assays using fish liver cells: Comparing rainbow trout and carp hepatocytes” (Frontiers in Toxicology, 2022)
“And” between values parts separate entries of the source, which are not always exact repeats. Identical values can stand only once. Like-named read-outs stand apart in the source and are kept apart here.

Columns and labels:
[1] = In vivo bioconcentration test OECD TG 305, carp; set-up: species or system Cyprinus carpio; details: common carp (Cyprinus carpio); for concentration at 40 d: day 40 (depuration); for concentration at 44 d: day 44 (depuration)
Description: (§1) In vivo BCF values for MXC and BaP in carp and trout were determined in bioconcentration tests with both species in accordance to OECD TG 305 ([OECD, 2012]). The studies were approved by the State Agency for Nature, Environment and Consumer Protection (LANUV) North Rhine-Westphalia. The fish were exposed to a single concentration of both test items in a flow-through system for 35 days. No control groups were used. Dosing was performed by a solid-phase desorption system which was integrated in the fresh water supply allowing for a constant delivery of test concentrations to the fish chambers. The procedure of column generated concentrations was described in detail by [Schlechtriem et al. (2017)]. For the present study, two packed columns containing each 500 g Florisil® loaded with 200 mg of either MXC or BaP were used for each fish chamber. The uptake (exposure) phase of the study was followed by a 35 days depuration phase in uncontaminated water. The flow-through rate was maintained at 38.6 L/h for carp and 30.1 L/h for trout throughout the test. […] Additional 2-4 fish were sampled each, at the start and at the end of the exposure period, as well as at the end of the depuration period for lipid analysis. The total lipid content of the fish was measured individually by gravimetric analysis according to [Smedes (1999)].
(§2) Water samples (400 ml) were taken from the test chambers at least three times per week. Preparation for chemical analysis was performed by liquid-liquid extraction using n-hexane (10 ml) containing deuterated MXC (35 ng). The purified organic phase was subdivided into two equal parts and evaporated to dryness under a stream of nitrogen. One part of the residue was dissolved in 200 µL DCM for MXC analysis. The other part was mixed with 1 ml ACN: water (8:2, v/v) and subjected to BaP analysis. Whole fish samples were prepared for chemical analysis individually. After grinding the tissue with the addition of dry ice in a Thermomix™ 31 (Vorwerk), the finely powdered homogenate was lyophilized using an AdVantage freeze dryer (Ismatec). Aliquots of the dry samples (0.5 g) were spiked with deuterated internal standards (5 ng MXC-d6 and 0.2 ng BaP-d12) and extracted three times with acetone: DCM (1:1, v/v) (10 ml). The pooled extracts were then extracted with ultra-pure water (45 ml) and mixed with sodium chloride (5 g) to remove acetone and matrix. The organic phase was concentrated (0.5 ml) and dissolved in cyclohexane: DCM (1:1, v/v) (4.2 ml). This was subjected to gel permeation chromatography (GPC) (GILSON system equipped with pump 307, syringe pump 402, GX-271 liquid handler, 508 interface module, and Trilution® LC software; column i. d. 1.5 cm, material Bio-Beads S-X3, 200–400 mesh, Bio-Rad, flow rate 2 ml/min). Eluates containing MXC (26–31 min retention time) and BaP (32–38 min retention time) were evaporated to dryness and dissolved in hexane (1 ml) and toluol (50 µL), respectively. The collected MXC extracts were further concentrated by solid-phase extraction (SPE, Sep-Pak® Vac 12cc, 2 g, silica cartridges, Waters) using DCM: n-hexane (50:50, v/v) as eluent. Eluent and hexane were used to equilibrate and condition the column before sample loading and subsequent washing with DCM: n-hexane (30:70, v/v). The eluate containing MXC was dried down and reconstituted in toluol (0.5 ml).
(§3) MXC in the organic phase of samples from the in vitro incubations and in DCM extracts of water samples from the in vivo bioconcentration tests were analyzed by gas chromatography-mass spectrometry (GC-MS). The GC-MS system consisted of a HP5890 series II GC coupled to a HP5972 mass sensitive detector (Hewlett-Packard). Separations were performed on 5% phenyl polysilphenylene-siloxane capillary columns (BPX-5, 30 m length x 0.25 mm i. d, 0.25 µm df, SGE). […]

common carp = assay: In vivo bioconcentration test OECD TG 305, carp; set-up: species or system Cyprinus carpio; details: for Cf data, concentration measured in individual fish: BaP background corrected
Description: as §1, §2, §3

[2] = set-up: method as in Fay et al., 2014b; details: ref Fay et al., 2014b; cited from earlier work
[3] = in vivo, Cf data, concentration measured in individual fish
[4] = in vivo, common carp, day 7 (uptake), read-out: Mean Cf
[5] = in vivo, common carp, day 14 (uptake), read-out: Mean Cf
[6] = in vivo, common carp, day 21 (uptake), read-out: Mean Cf
[7] = in vivo, common carp, day 28 (uptake), read-out: Mean Cf
[8] = in vivo, common carp, day 35 (end of uptake), read-out: Mean Cf
[9] = in vivo, common carp, read-out: Mean Cf
[10] = common carp (Cyprinus carpio), in vivo
[11] = in vivo, common carp, BaP background corrected, read-out: Cf data, concentration measured in individual fish

## c1ccc2c(c1)cc1ccc3cccc4ccc2c1c34 [BaP, benzo[a]pyrene]
[1]; [3]
  concentration at 7 d: 0.204 ng/g
  concentration at 14 d: 0.168 ng/g
  concentration at 21 d: 0.136 ng/g
  concentration at 28 d: 0.13 ng/g
  concentration at 35 d: 0.149 ng/g
[1]; [4]
  concentration at 7 d: 0.216 ng/g
[1]; [5]
  concentration at 14 d: 0.172 ng/g
[1]; [6]
  concentration at 21 d: 0.154 ng/g
[1]; [7]
  concentration at 28 d: 0.148 ng/g
[1]; [8]
  concentration at 35 d: 0.153 ng/g
[1]; [9]
  concentration at 40 d: 0.013 ng/g
  concentration at 44 d: 0.002 ng/g
[1]; whole fish, other: exposure via water in a flow-through system, common carp, day 14 (uptake), BaP background corrected, read-out: Cf data, concentration measured in individual fish
  concentration at 14 d: 0.141 ng/g
Common carp; [10]
  Cf,SS concentration in fish at steady-state: 0.157 µg/kg
  kB, in vivo estimate Carp: 0.48 day⁻¹
  kB, in vivo estimate, range of 95% probability: 0.16–1.4
  kT depuration rate constant: 0.493 day⁻¹
  kTG growth corrected depuration rate constant: 0.482 day⁻¹
Common carp; common carp (Cyprinus carpio), in vivo, 35 d
  BCFSSL lipid-normalized steady-state bioconcentration factor: 73 L/kg
[2]
  log KOW: 5.99

## COc1ccc(C(c2ccc(OC)cc2)C(Cl)(Cl)Cl)cc1 [MXC, methoxychlor]
[1]; in vivo, common carp, day 7 (uptake), BaP background corrected, read-out: Cf data, concentration measured in individual fish
  concentration at 7 d: 12.8 ng/g
[1]; [4]
  concentration at 7 d: 12.2 ng/g
[1]; in vivo, common carp, day 14 (uptake), BaP background corrected, read-out: Cf data, concentration measured in individual fish
  concentration at 14 d: 11.4 ng/g
[1]; [5]
  concentration at 14 d: 9.88 ng/g
[1]; in vivo, common carp, day 21 (uptake), BaP background corrected, read-out: Cf data, concentration measured in individual fish
  concentration at 21 d: 9.16 ng/g
[1]; [6]
  concentration at 21 d: 8.56 ng/g
[1]; in vivo, common carp, day 28 (uptake), BaP background corrected, read-out: Cf data, concentration measured in individual fish
  concentration at 28 d: 7.02 ng/g
[1]; [7]
  concentration at 28 d: 6.94 ng/g
[1]; in vivo, common carp, day 35 (end of uptake), BaP background corrected, read-out: Cf data, concentration measured in individual fish
  concentration at 35 d: 8.35 ng/g
[1]; [8]
  concentration at 35 d: 7.59 ng/g
[1]; [11]
  concentration at 40 d: 3.02 ng/g
  concentration at 44 d: 0.819 ng/g
[1]; [9]
  concentration at 40 d: 2.4 ng/g
  concentration at 44 d: 0.757 ng/g
Common carp; common carp
  Cf,SS concentration in fish at steady-state: 8.24 µg/kg
  kT depuration rate constant: 0.255 day⁻¹
  kTG growth corrected depuration rate constant: 0.244 day⁻¹
Common carp; common carp, 5% lipid content
  BCFSSL lipid-normalized steady-state bioconcentration factor: 621 L/kg
Common carp; common carp, day 7 (uptake)
  Cf data, concentration measured in individual fish: 11.7 µg/kg and 10.7 µg/kg and 13.8 µg/kg
Common carp; common carp, day 14 (uptake)
  Cf data, concentration measured in individual fish: 9.30 µg/kg and 10.0 µg/kg and 8.83 µg/kg
Common carp; common carp, day 21 (uptake)
  Cf data, concentration measured in individual fish: 9.96 µg/kg and 6.95 µg/kg and 8.16 µg/kg
Common carp; common carp, day 28 (uptake)
  Cf data, concentration measured in individual fish: 5.90 µg/kg and 7.85 µg/kg and 7.00 µg/kg
Common carp; common carp, day 35 (end of uptake)
  Cf data, concentration measured in individual fish: 7.32 µg/kg and 7.30 µg/kg and 7.40 µg/kg
Common carp; common carp, day 40 (depuration)
  Cf data, concentration measured in individual fish: 2.71 µg/kg and 1.73 µg/kg and 2.16 µg/kg
Common carp; common carp, day 44 (depuration)
  Cf data, concentration measured in individual fish: 0.719 µg/kg and 0.956 µg/kg and 0.535 µg/kg
[2]
  log KOW: 5.08
